# System: Ba
# Experiment: Phase 2a study: urinary Ba (MicroVue Ba Enzyme Immunoassay)
# Format: in vivo, human
# [1] = Patient A, 100 mg TID, Day 1/0 Hour
# [2] = Patient A, 100 mg TID, Day 7/0 Hour
# [3] = Patient A, 100 mg TID, Day 15 Taper
# [4] = Patient A, 100 mg TID, Day 16 Taper
# [5] = Patient A, 100 mg TID, Day 17 Taper
# [6] = Patient A, 100 mg TID, Day 21 Taper
# [7] = Patient A, 100 mg TID, Follow-Up Day 24
# [8] = Patient A, 100 mg TID, Follow-Up Day 28
# [9] = Patient A, 100 mg TID, Follow-Up Day 49
# [10] = Patient B, 100 mg TID, Day 1/0 Hour
# [11] = Patient B, 100 mg TID, Day 7/0 Hour
# [12] = Patient B, 100 mg TID, Day 15 Taper
# [13] = Patient B, 100 mg TID, Day 16 Taper
# [14] = Patient B, 100 mg TID, Day 17 Taper
# [15] = Patient B, 100 mg TID, Day 21 Taper
# [16] = Patient B, 100 mg TID, Follow-Up Day 24
# [17] = Patient B, 100 mg TID, Follow-Up Day 28
# [18] = Patient B, 100 mg TID, Follow-Up Day 49
# [19] = Patient C, 200 mg TID, Day 1/0 Hour
# [20] = Patient C, 200 mg TID, Day 7/0 Hour
# [21] = Patient C, 200 mg TID, Day 15 Taper
# [22] = Patient C, 200 mg TID, Day 16 Taper
# [23] = Patient C, 200 mg TID, Day 17 Taper
# [24] = Patient C, 200 mg TID, Day 21 Taper
# [25] = Patient C, 200 mg TID, Follow-Up Day 24
# [26] = Patient C, 200 mg TID, Follow-Up Day 28
# [27] = Patient C, 200 mg TID, Follow-Up Day 49
# [28] = Patient D, 200 mg TID, Day 1/0 Hour
# [29] = Patient D, 200 mg TID, Day 7/0 Hour
# [30] = Patient D, 200 mg TID, Day 15 Taper
# [31] = Patient D, 200 mg TID, Day 17 Taper
# [32] = Patient D, 200 mg TID, Day 21 Taper
smiles,measurement,setting,value
"CC(=O)c1nn(CC(=O)N2C[C@H](F)C[C@H]2C(=O)Nc2cccc(Br)n2)c2ccc(-c3cnc(C)nc3)cc12 [Compound 1, (2S,4R)-1-(2-(3-acetyl-5-(2-methylpyrimidin-5-yl)-1H-indazol-1-yl)acetyl)-N-(6-bromopyridin-2-yl)-4-fluoropyrrolidine-2-carboxamide]",Ba/ALB,[1],22.1 ng/mg
same,Ba/Cr,[1],5.7 µg/mmol
same,Urine Ba,[1],47.1 ng/mL
same,Ba/ALB,"Patient A, 100 mg TID, Day 4",8.4 ng/mg
same,Ba/Cr,"Patient A, 100 mg TID, Day 4",1.8 µg/mmol
same,Urine Ba,"Patient A, 100 mg TID, Day 4",14.7 ng/mL
same,Ba/ALB,[2],7.5 ng/mg
same,Ba/Cr,[2],1.8 µg/mmol
same,Urine Ba,[2],11.6 ng/mL
same,Ba/ALB,"Patient A, 100 mg TID, Day 10",6.1 ng/mg
same,Ba/Cr,"Patient A, 100 mg TID, Day 10",1.4 µg/mmol
same,Urine Ba,"Patient A, 100 mg TID, Day 10",8.6 ng/mL
same,Ba/ALB,[3],11.4 ng/mg
same,Ba/Cr,[3],1.6 µg/mmol
same,Urine Ba,[3],11.9 ng/mL
same,Ba/ALB,[4],16.3 ng/mg
same,Ba/Cr,[4],2.3 µg/mmol
same,Urine Ba,[4],17.4 ng/mL
same,Ba/ALB,[5],18.6 ng/mg
same,Ba/Cr,[5],2.1 µg/mmol
same,Urine Ba,[5],21.2 ng/mL
same,Ba/ALB,[6],65.5 ng/mg
same,Ba/Cr,[6],9.2 µg/mmol
same,Urine Ba,[6],79.8 ng/mL
same,Ba/ALB,[7],83.3 ng/mg
same,Ba/Cr,[7],11.5 µg/mmol
same,Urine Ba,[7],115.3 ng/mL
same,Ba/ALB,[8],77.1 ng/mg
same,Ba/Cr,[8],10.2 µg/mmol
same,Urine Ba,[8],100.8 ng/mL
same,Ba/ALB,[9],26.5 ng/mg
same,Ba/Cr,[9],3.8 µg/mmol
same,Urine Ba,[9],16.5 ng/mL
same,Ba/ALB,"Patient A, 100 mg TID, Screen",15.0 ng/mg
same,Ba/Cr,"Patient A, 100 mg TID, Screen",3.4 µg/mmol
same,Urine Ba,"Patient A, 100 mg TID, Screen",28.3 ng/mL
same,Ba/ALB,[10],225 ng/mg
same,Ba/Cr,[10],129.9 µg/mmol
same,Urine Ba,[10],793 ng/mL
same,Ba/ALB,"Patient B, 100 mg TID, Day 4",47 ng/mg
same,Ba/Cr,"Patient B, 100 mg TID, Day 4",12.4 µg/mmol
same,Urine Ba,"Patient B, 100 mg TID, Day 4",158 ng/mL
same,Ba/ALB,[11],41 ng/mg
same,Ba/Cr,[11],10.2 µg/mmol
same,Urine Ba,[11],149 ng/mL
same,Ba/ALB,"Patient B, 100 mg TID, Day 10",28 ng/mg
same,Ba/Cr,"Patient B, 100 mg TID, Day 10",7.0 µg/mmol
same,Urine Ba,"Patient B, 100 mg TID, Day 10",53 ng/mL
same,Ba/ALB,"Patient B, 100 mg TID, Day 14",54 ng/mg
same,Ba/Cr,"Patient B, 100 mg TID, Day 14",14.2 µg/mmol
same,Urine Ba,"Patient B, 100 mg TID, Day 14",238 ng/mL
same,Ba/ALB,[12],58 ng/mg
same,Ba/Cr,[12],19.0 µg/mmol
same,Urine Ba,[12],209 ng/mL
same,Ba/ALB,[13],77 ng/mg
same,Ba/Cr,[13],25.2 µg/mmol
same,Urine Ba,[13],318 ng/mL
same,Ba/ALB,[14],55 ng/mg
same,Urine Ba,[14],164 ng/mL
same,Ba/ALB,[15],43 ng/mg
same,Ba/Cr,[15],15.9 µg/mmol
same,Urine Ba,[15],129 ng/mL
same,Ba/ALB,[16],87 ng/mg
same,Ba/Cr,[16],41.1 µg/mmol
same,Urine Ba,[16],251 ng/mL
same,Ba/ALB,[17],65 ng/mg
same,Ba/Cr,[17],24.6 µg/mmol
same,Urine Ba,[17],175 ng/mL
same,Ba/ALB,[18],771 ng/mg
same,Ba/Cr,[18],108.0 µg/mmol
same,Urine Ba,[18],1727 ng/mL
same,Ba/ALB,"Patient B, 100 mg TID, Screen",97 ng/mg
same,Ba/Cr,"Patient B, 100 mg TID, Screen",47.1 µg/mmol
same,Urine Ba,"Patient B, 100 mg TID, Screen",348 ng/mL
same,Ba/ALB,[19],2.9 ng/mg
same,Ba/Cr,[19],0.168 µg/mmol
same,Urine Ba,[19],0.30 ng/mL
same,Ba/ALB,"Patient C, 200 mg TID, Day 4",1.5 ng/mg
same,Ba/Cr,"Patient C, 200 mg TID, Day 4",0.040 µg/mmol
same,Urine Ba,"Patient C, 200 mg TID, Day 4",0.08 ng/mL
same,Ba/ALB,[20],2.6 ng/mg
same,Ba/Cr,[20],0.056 µg/mmol
same,Urine Ba,[20],0.21 ng/mL
same,Ba/ALB,"Patient C, 200 mg TID, Day 10",1.5 ng/mg
same,Ba/Cr,"Patient C, 200 mg TID, Day 10",0.053 µg/mmol
same,Urine Ba,"Patient C, 200 mg TID, Day 10",0.08 ng/mL
same,Ba/ALB,"Patient C, 200 mg TID, Day 14",2.2 ng/mg
same,Ba/Cr,"Patient C, 200 mg TID, Day 14",0.068 µg/mmol
same,Urine Ba,"Patient C, 200 mg TID, Day 14",0.09 ng/mL
same,Ba/ALB,[21],2.2 ng/mg
same,Ba/Cr,[21],0.099 µg/mmol
same,Urine Ba,[21],0.15 ng/mL
same,Ba/ALB,[22],3.0 ng/mg
same,Ba/Cr,[22],0.078 µg/mmol
same,Urine Ba,[22],0.15 ng/mL
same,Ba/ALB,[23],1.8 ng/mg
same,Ba/Cr,[23],0.058 µg/mmol
same,Urine Ba,[23],0.13 ng/mL
same,Ba/ALB,[24],7.5 ng/mg
same,Ba/Cr,[24],0.175 µg/mmol
same,Urine Ba,[24],0.49 ng/mL
same,Ba/ALB,[25],2.3 ng/mg
same,Ba/Cr,[25],0.075 µg/mmol
same,Urine Ba,[25],0.14 ng/mL
same,Ba/ALB,[26],4.5 ng/mg
same,Ba/Cr,[26],0.213 µg/mmol
same,Urine Ba,[26],0.62 ng/mL
same,Ba/ALB,[27],1.7 ng/mg
same,Ba/Cr,[27],0.036 µg/mmol
same,Urine Ba,[27],0.16 ng/mL
same,Ba/ALB,"Patient C, 200 mg TID, Screen",1.5 ng/mg
same,Ba/Cr,"Patient C, 200 mg TID, Screen",0.065 µg/mmol
same,Urine Ba,"Patient C, 200 mg TID, Screen",0.12 ng/mL
same,Ba/ALB,[28],10.9 ng/mg
same,Ba/Cr,[28],2.5 µg/mmol
same,Urine Ba,[28],14.2 ng/mL
same,Ba/ALB,"Patient D, 200 mg TID, Day 4",3.5 ng/mg
same,Ba/Cr,"Patient D, 200 mg TID, Day 4",1.0 µg/mmol
same,Urine Ba,"Patient D, 200 mg TID, Day 4",4.4 ng/mL
same,Ba/ALB,[29],6.5 ng/mg
same,Ba/Cr,[29],2.1 µg/mmol
same,Urine Ba,[29],2.4 ng/mL
same,Ba/ALB,"Patient D, 200 mg TID, Day 10",2.8 ng/mg
same,Ba/Cr,"Patient D, 200 mg TID, Day 10",1.8 µg/mmol
same,Urine Ba,"Patient D, 200 mg TID, Day 10",1.8 ng/mL
same,Ba/ALB,"Patient D, 200 mg TID, Day 14",4.6 ng/mg
same,Ba/Cr,"Patient D, 200 mg TID, Day 14",1.3 µg/mmol
same,Urine Ba,"Patient D, 200 mg TID, Day 14",4.1 ng/mL
same,Ba/ALB,[30],4.3 ng/mg
same,Ba/Cr,[30],2.0 µg/mmol
same,Urine Ba,[30],8.4 ng/mL
same,Ba/ALB,[31],2.9 ng/mg
same,Ba/Cr,[31],1.7 µg/mmol
same,Urine Ba,[31],5.0 ng/mL
same,Ba/ALB,[32],7.8 ng/mg
same,Ba/Cr,[32],4.4 µg/mmol

# Reference: patent US20210215714A1, “COMPLEMENT ALTERNATIVE PATHWAY-ASSOCIATED NEPHROPATHY BIOMARKERS” (Achillion Pharmaceuticals, Inc., priority 2018, published 2021)
